Measured values taken from patent publication US11168079B2, “Alkene compounds as farnesoid x receptor modulators” (BRISTOL-MYERS SQUIBB COMPANY, priority 2017, dated 2021).
pEC50: −log10 of the molar value. Read-outs that look alike come from different tables or passages of the source.

Target: T1, human FXR (Homo sapiens, UniProt Q96RI1)
T1 sequence (Q96RI1 262-486 limits assumed): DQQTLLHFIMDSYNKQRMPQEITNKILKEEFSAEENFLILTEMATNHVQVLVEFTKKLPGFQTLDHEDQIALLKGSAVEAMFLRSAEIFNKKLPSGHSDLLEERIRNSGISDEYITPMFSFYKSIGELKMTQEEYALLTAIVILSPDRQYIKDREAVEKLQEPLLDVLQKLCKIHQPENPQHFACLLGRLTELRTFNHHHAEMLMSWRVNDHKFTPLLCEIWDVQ
Assay: transient human FXR/Gal4-luciferase reporter assay (HLE GAL-FXR)
Settings: HEK293 cells; for EC50: FXR EC50 (nM)

[1] = Gal4-hFXR fusion reporter, Table 1
[2] = HLE GAL-FXR EC50, Gal4-hFXR fusion reporter

Experimental: A Gal4-hFXR fusion construct reporter system was used as the primary assay to characterize compound activity. A construct including 5 copies of the Gal4 promoter response element upstream of a firefly luciferase reporter cDNA was stably expressed in HEK293 cells. This reporter cell line was maintained in Dulbecco's Modified Eagle's medium (DMEM; Gibco) supplemented with 1% penicillin-streptomycin (P/S) solution, 500 μg/mL Zeocin and 10% charcoal/dextran-treated fetal bovine serum (cs-FBS) at 37° C. in a humidified 5% CO2 atmosphere. Another plasmid was constructed in which the human cytomegalovirus promoter in the pcDNA3.1 vector directs the expression of the cDNA encoding a fusion protein comprised of the DNA binding domain from the Gal4 transcription factor fused to the ligand binding domain from human FXR.
For compound testing, 100 nL of the compounds (serial dilutions in DMSO) are dispensed with an Echo acoustic dispenser (Labcyte) into the wells of a Corning/Costar clear bottom 384-well white plate. The transfected cells are harvested, counted, and diluted such that 10-25,000 cells in 25 μL are plated into each well of the 384-well compound assay plate. The compound-treated cells are incubated overnight at 37° C. in a humidified 5% CO2 atmosphere. The next morning 25 μL of Steady-Glo (Promega) are added to each well of the plate, the mixture is incubated for 15 min. with shaking, and luminescence is measured on an Envision (Perkin Elmer) plate reader.

| Structure (SMILES) | EC50 [1] [nM] | further results |
| --- | --- | --- |
| Clc1cccc(Cl)c1-c1noc(C2CC2)c1/C=C/C1CCN(c2ccc(-c3nn[nH]n3)cn2)CC1 [Example 64] | 30 | – |
| Clc1cccc(Cl)c1-c1noc(C2CC2)c1/C=C/C1C2CN(c3ccc4nc(-c5nnn[nH]5)ccc4c3)CC12 (stereo not drawn) [Example 65] | 189 | – |
| O=C(O)c1cc2ccc(N3CC4C(/C=C/c5c(-c6c(Cl)cccc6Cl)noc5C5CC5)C4C3)cc2nn1 (stereo not drawn) [Example 66] | 227 | – |
| Cn1cc(C(=O)O)c2ccc(N3CC4C(/C=C/c5c(-c6c(Cl)cccc6Cl)noc5C5CC5)C4C3)cc21 (stereo not drawn) [Example 68] | 17 | – |
| NC(=O)c1ccc(N2CC3C(/C=C/c4c(-c5c(Cl)cccc5Cl)noc4C4CC4)C3C2)cc1 (stereo not drawn) [Example 70, (E)-4-(6-(2-(5-Cyclopropyl-3-(2,6-dichlorophenyl)isoxazol-4-yl)vinyl)-3-azabicyclo[3.1.0]hexan-3-yl)benzamide] | – | pEC50 [2]: 6.42 |
| CS(=O)(=O)NC(=O)c1ccc(N2CC3C(/C=C/c4c(-c5c(Cl)cccc5Cl)noc4C4CC4)C3C2)cc1 (stereo not drawn) [Example 71, (E)-4-(6-(2-(5-Cyclopropyl-3-(2,6-dichlorophenyl)isoxazol-4-yl)vinyl)-3-azabicyclo[3.1.0]hexan-3-yl)-N-(methylsulfonyl)benzamide] | – | pEC50 [2]: 7.08 |
| O=C(O)c1cc2ccc(N3CC4C(/C=C/c5c(-c6c(Cl)cncc6Cl)noc5C5CC5)C4C3)cc2cn1 (stereo not drawn) [Example 73] | 673 | – |
| O=C(O)c1cc(F)c2nc(N3CC4C(/C=C/c5c(-c6c(Cl)cncc6Cl)noc5C5CC5)C4C3)sc2c1 (stereo not drawn) [Example 77] | 786 | – |
| O=C(O)c1ccc2nc(N3CC4C(/C=C/c5c(-c6c(Cl)cncc6Cl)noc5C5CC5)C4C3)sc2c1 (stereo not drawn) [Example 78] | 515 | – |
| O=C(O)c1ccc2nc(N3CC4C(/C=C/c5c(-c6c(Cl)cncc6Cl)noc5C5CC5)C4C3)ccc2c1 (stereo not drawn) [Example 79] | 1160 | – |
| COc1cc(C(=O)O)nc2ccc(N3CC4C(/C=C/c5c(-c6c(Cl)cncc6Cl)noc5C5CC5)C4C3)cc12 (stereo not drawn) [Example 80] | 38 | – |
| O=C(O)c1ccc2nc(N3CC4C(/C=C/c5c(-c6c(Cl)cccc6Cl)noc5C5CC5)C4C3)sc2n1 (stereo not drawn) [Example 81] | 89 | – |
| O=C(O)c1ccc2cc(N3CC4C(/C=C/c5c(-c6c(Cl)cncc6Cl)noc5C5CC5)C4C3)ccc2n1 (stereo not drawn) [Example 82] | 267 | – |
| O=C(O)c1cnc(N2CC3C(/C=C/c4c(-c5c(Cl)cccc5Cl)noc4C4CC4)C3C2)s1 (stereo not drawn) [Example 86] | 1010 | – |
| Cn1cc(C(=O)O)c2ccc(N3CC4C(/C=C/c5c(-c6c(Cl)cncc6Cl)noc5C5CC5)C4C3)cc21 (stereo not drawn) [Example 89] | 31 | – |
| O=C(O)c1cc(OC(F)F)c2cc(N3CC4C(/C=C/c5c(-c6c(Cl)cncc6Cl)noc5C5CC5)C4C3)ccc2n1 (stereo not drawn) [Example 91] | 4 | – |
| O=C(O)c1cccc2nc(N3CC4C(/C=C/c5c(-c6c(Cl)cncc6Cl)noc5C5CC5)C4C3)sc12 (stereo not drawn) [Example 93] | 280 | – |
| O=C(O)c1nsc2cc(N3CC4C(/C=C/c5c(-c6c(Cl)cncc6Cl)noc5C5CC5)C4C3)ccc12 (stereo not drawn) [Example 95] | 108 | – |

| Structure (SMILES) | EC50 [1] [nM] | further results |
| --- | --- | --- |
| O=C(O)c1ccc(N2CC3C(/C=C/c4c(-c5c(Cl)cncc5Cl)noc4C4CC4)C3C2)cc1 (stereo not drawn) [Example 96] | 66 | – |
| O=C(O)c1ccc(N2CC3C(/C=C/c4c(-c5c(Cl)cncc5Cl)noc4C4CC4)C3C2)nc1 (stereo not drawn) [Example 102] | 1270 | – |
| O=C(O)c1nccc2cc(N3CC4C(/C=C/c5c(-c6c(Cl)cncc6Cl)noc5C5CC5)C4C3)ccc12 (stereo not drawn) [Example 105] | 310 | – |
| O=C(O)c1nc2ccc(N3CC4C(/C=C/c5c(-c6c(Cl)cncc6Cl)noc5C5CC5)C4C3)cc2s1 (stereo not drawn) [Example 107] | 472 | – |
| CC(C)Oc1cc(C(=O)O)nc2ccc(N3CC4C(/C=C/c5c(-c6c(Cl)cncc6Cl)noc5C5CC5)C4C3)cc12 (stereo not drawn) [Example 109] | 25 | – |
| Cc1cc(C(=O)O)nc2ccc(N3CC4C(/C=C/c5c(-c6c(Cl)cncc6Cl)noc5C5CC5)C4C3)cc12 (stereo not drawn) [Example 111] | – | pEC50 (read-out: FXR EC50, Gal4-hFXR fusion reporter, Table 1): 7.42 |
| COCCOc1cc(C(=O)O)nc2ccc(N3CC4C(/C=C/c5c(-c6c(Cl)cncc6Cl)noc5C5CC5)C4C3)cc12 (stereo not drawn) [Example 113] | 154 | – |
| COc1cc(C(=O)O)cc2sc(N3CC4C(/C=C/c5c(-c6c(Cl)cncc6Cl)noc5C5CC5)C4C3)nc12 (stereo not drawn) [Example 114] | 131 | – |
| O=C(O)c1ccc(-c2nc(N3CC4C(/C=C/c5c(-c6c(Cl)cncc6Cl)noc5C5CC5)C4C3)no2)cc1 (stereo not drawn) [Example 116, (E)-4-(3-(6-(2-(5-Cyclopropyl-3-(3,5-dichloropyridin-4-yl)isoxazol-4-yl)vinyl)-3-azabicyclo[3.1.0]hexan-3-yl)-1,2,4-oxadiazol-5-yl)benzoic acid] | – | pEC50 [2]: 6.06 |
| O=C(O)c1cccc(-c2nc(N3CC4C(/C=C/c5c(-c6c(Cl)cncc6Cl)noc5C5CC5)C4C3)no2)c1 (stereo not drawn) [Example 117] | 494 | – |
| O=C(O)c1cc(OC2CCOC2)c2cc(N3CC4C(/C=C/c5c(-c6c(Cl)cncc6Cl)noc5C5CC5)C4C3)ccc2n1 (stereo not drawn) [Example 120] | 18 | – |
| O=C(O)c1ccc(N2CC3C(/C=C/c4c(-c5c(Cl)cncc5Cl)noc4C4CC4)C3C2)c2ncccc12 (stereo not drawn) [Example 121] | 824 | – |
| O=C(O)c1cc(-c2nc(N3CC4C(/C=C/c5c(-c6c(Cl)cncc6Cl)noc5C5CC5)C4C3)no2)cc(C(F)(F)F)c1 (stereo not drawn) [Example 123] | 206 | – |
| COc1cc(C(=O)O)nc2sc(N3CC4C(/C=C/c5c(-c6c(Cl)cncc6Cl)noc5C5CC5)C4C3)nc12 (stereo not drawn) [Example 124] | 284 | – |
| O=C(O)c1cc(OC2COC2)c2cc(N3CC4C(/C=C/c5c(-c6c(Cl)cncc6Cl)noc5C5CC5)C4C3)ccc2n1 (stereo not drawn) [Example 126] | 18 | – |
| O=C(O)c1cc(O[C@@H]2CCOC2)c2cc(N3CC4C(/C=C/c5c(-c6c(Cl)cncc6Cl)noc5C5CC5)C4C3)ccc2n1 (stereo partly drawn) [Example 127] | 30 | – |
| O=C(O)c1cc(O[C@H]2CCOC2)c2cc(N3CC4C(/C=C/c5c(-c6c(Cl)cncc6Cl)noc5C5CC5)C4C3)ccc2n1 (stereo partly drawn) [Example 128] | 27 | – |

More lines, main results first:

| EC50 [1] [nM] | Structure (SMILES) | further results |
| --- | --- | --- |
| 1210 | O=C(O)c1cc2ccc(N3CCC(/C=C/c4c(-c5ccccc5OC(F)(F)F)noc4C4CC4)CC3)cc2nn1 [Example 67] | – |
| 31 | O=C(O)c1cnc2cc(N3CCC(/C=C/c4c(-c5c(Cl)cccc5Cl)noc4C4CC4)CC3)ccc2c1 [Example 69] | – |
| 98 | O=C(O)c1cc(C(F)(F)F)c2cc(N3CC4C(/C=C/c5c(-c6c(Cl)cncc6Cl)noc5C5CC5)C4C3)ccc2n1 (stereo not drawn) [Example 72] | – |
| 577 | O=C(O)c1cc(C(F)(F)F)c2cc(N3CC4C(/C=C/c5c(-c6ccccc6C(F)(F)F)noc5C5CC5)C4C3)ccc2n1 (stereo not drawn) [Example 75] | – |
| 413 | O=C(O)c1cc2ccc(N3CC4C(/C=C/c5c(-c6ccccc6C(F)(F)F)noc5C5CC5)C4C3)cc2cn1 (stereo not drawn) [Example 76] | – |
| 42 | O=C(O)c1cc(C(F)(F)F)c2cc(N3CCC(/C=C/c4c(-c5c(Cl)cncc5Cl)noc4C4CC4)CC3)ccc2n1 [Example 83] | – |
| 215 | O=C(O)c1cc(C(F)(F)F)c2cc(N3CCC(/C=C/c4c(-c5ccncc5Cl)noc4C4CC4)CC3)ccc2n1 [Example 84] | – |
| 156 | O=C(O)c1ccc2nc(N3CCC(/C=C/c4c(-c5c(Cl)cncc5Cl)noc4C4CC4)CC3)sc2n1 [Example 85] | – |
| 26 | O=C(O)c1ccc2nc(N3CCC(/C=C/c4c(-c5ccccc5C(F)(F)F)noc4C4CC4)CC3)sc2n1 [Example 87] | – |
| 5 | COc1cc(C(=O)O)nc2ccc(N3CCC(/C=C/c4c(-c5c(Cl)cncc5Cl)noc4C4CC4)CC3)cc12 [Example 88] | – |
| 3 | O=C(O)c1cc(OC(F)F)c2cc(N3CCC(/C=C/c4c(-c5c(Cl)cncc5Cl)noc4C4CC4)CC3)ccc2n1 [Example 92] | – |
| 3 | O=C(O)c1cc(OC(F)F)c2cc(N3CCC(/C=C/c4c(-c5cccnc5C(F)(F)F)noc4C4CC4)CC3)ccc2n1 [Example 98] | – |
| 3 | O=C(O)c1cc(OC(F)F)c2cc(N3CCC(/C=C/c4c(-c5ccccc5C(F)(F)F)noc4C4CC4)CC3)ccc2n1 [Example 99] | – |
| 4 | COc1cc(C(=O)O)nc2ccc(N3CCC(/C=C/c4c(-c5ccccc5C(F)(F)F)noc4C4CC4)CC3)cc12 [Example 100] | – |
| 189 | O=C(O)c1cc2ccc(N3CCC(/C=C/c4c(-c5cccnc5C(F)(F)F)noc4C4CC4)CC3)cc2cn1 [Example 103] | – |
| 219 | O=C(O)c1nccc2cc(N3CCC(/C=C/c4c(-c5c(Cl)cncc5Cl)noc4C4CC4)CC3)ccc12 [Example 104] | – |
| 330 | O=C(O)c1nccc2cc(N3CCC(/C=C/c4c(-c5ccccc5OC(F)(F)F)noc4C4CC4)CC3)ccc12 [Example 106] | – |
| 22 | CC(C)Oc1cc(C(=O)O)nc2ccc(N3CCC(/C=C/c4c(-c5ccccc5OC(F)(F)F)noc4C4CC4)CC3)cc12 [Example 108] | – |
| 5 | CC(C)Oc1cc(C(=O)O)nc2ccc(N3CCC(/C=C/c4c(-c5ccncc5C(F)(F)F)noc4C4CC4)CC3)cc12 [Example 110] | – |
| 155 | Cc1cc(C(=O)O)nc2sc(N3CCC(/C=C/c4c(-c5c(Cl)cncc5Cl)noc4C4CC4)CC3)nc12 [Example 112] | – |
| 112 | O=C(O)c1cc2ccc(N3CCC(/C=C/c4c(-c5ncccc5C(F)(F)F)noc4C4CC4)CC3)cc2cn1 [Example 115] | – |
| 276 | O=C(O)c1cnn2cc(N3CCC(/C=C/c4c(-c5ccccc5OC(F)(F)F)noc4C4CC4)CC3)ccc12 [Example 118] | – |
| 96 | Cc1nc(C(=O)O)cc2ccc(N3CCC(/C=C/c4c(-c5ccccc5OC(F)(F)F)noc4C4CC4)CC3)cc12 [Example 119] | – |
| 126 | COc1nc(C(=O)O)cc2ccc(N3CC4C(/C=C/c5c(-c6c(Cl)cncc6Cl)noc5C5CC5)C4C3)cc12 (stereo not drawn) [Example 122] | – |
| 14 | COc1cc(C(=O)O)nc2ccc(N3CCC(/C=C/c4c(-c5ncccc5C(F)(F)F)noc4C4CC4)CC3)cc12 [Example 125] | – |
